Reference: US12514943B2 (priority 2020, dated 2026)

System: Aspergillus brasiliensis (ATCC 16404)
Experiment: Evaluation test for microbicidal effect, suspension test EN 13624:2013 (clean conditions)
Assay type: cell-based
Conditions: equal molar amount instead of glycine in the formula of Example 1-1

CC(=O)O [acetic acid]
enhancement of the microbicidal activity of the acidic oxidant of peracetic acid and hydrogen peroxide (in words): could not enhance the microbicidal activity

O=P([O-])([O-])O.[K+].[K+] [dipotassium hydrogen phosphate]
enhancement of the microbicidal activity of the acidic oxidant of peracetic acid and hydrogen peroxide (in words): could not enhance the microbicidal activity

O=P([O-])([O-])[O-].[Na+].[Na+].[Na+] [trisodium phosphate]
enhancement of the microbicidal activity of the acidic oxidant of peracetic acid and hydrogen peroxide (in words): could not enhance the microbicidal activity
